Article PMC4319009, “Small Molecules Dorsomorphin and LDN-193189 Inhibit Myostatin/GDF8 Signaling and Promote Functional Myoblast Differentiation” (The Journal of Biological Chemistry, 2014)
pKd: −log10 of the molar value.

Assays:
[1] = biological target: T1, ActRIIB (Homo sapiens, UniProt Q13705); test: isothermal titration calorimetry; format: binding
T1 construct: gene ACVR2B; kinase domain residues 190-487, N-terminal His6 removed by TEV protease, vector pFB-LIC-Bse, baculovirus Sf9
Description: isothermal titration calorimetry on ActRIIB

[2] = biological target: T2, ActRIIA (Homo sapiens, UniProt P27037); test: isothermal titration calorimetry; format: binding
T2 construct: gene ACVR2A; kinase domain residues 191-488, N-terminal His6 removed by TEV protease, vector pFB-LIC-Bse, baculovirus Sf9; two molecules per asymmetric unit
Description: isothermal titration calorimetry on ActRIIA

T2 sequence (P27037 191-488): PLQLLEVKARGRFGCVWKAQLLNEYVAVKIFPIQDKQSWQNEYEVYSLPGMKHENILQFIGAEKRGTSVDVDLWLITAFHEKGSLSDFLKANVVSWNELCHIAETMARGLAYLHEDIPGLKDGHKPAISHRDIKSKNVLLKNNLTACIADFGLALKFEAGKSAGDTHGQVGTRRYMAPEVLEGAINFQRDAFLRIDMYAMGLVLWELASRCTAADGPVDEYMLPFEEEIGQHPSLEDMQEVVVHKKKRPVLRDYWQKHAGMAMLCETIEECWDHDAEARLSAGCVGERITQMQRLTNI
T1 sequence (Q13705 190-487): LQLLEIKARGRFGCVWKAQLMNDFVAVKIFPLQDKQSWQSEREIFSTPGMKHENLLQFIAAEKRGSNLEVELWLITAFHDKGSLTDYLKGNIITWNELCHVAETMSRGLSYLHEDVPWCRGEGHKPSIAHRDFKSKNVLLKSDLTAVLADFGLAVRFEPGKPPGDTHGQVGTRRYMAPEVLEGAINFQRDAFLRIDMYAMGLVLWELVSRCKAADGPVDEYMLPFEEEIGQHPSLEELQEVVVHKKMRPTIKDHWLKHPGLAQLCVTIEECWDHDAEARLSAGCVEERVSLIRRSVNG

Structure (SMILES)	pKd [1]	pKd [2]
c1cc(-c2cnn3cc(-c4ccc(OCCN5CCCCC5)cc4)cnc23)ccn1 [Dorsomorphin]	7.52	7.24
c1ccc2c(-c3cnn4cc(-c5ccc(N6CCNCC6)cc5)cnc34)ccnc2c1 [LDN-193189]		7.85
